# Source: patent publication US9285358B2, “Vitro method for high throughput screening of genotoxic agents in eukaryotic cells” (ANTHEM BIOSCIENCES PVT LTD, priority 2011, dated 2016)
# Like-named read-outs stand apart in the source and are kept apart here.
# Tests used:
# [1] = tested on: HCT116-p21RLuc-GADD153hFLuc-p53Bgal cells; assay: Anthem's Genotox assay (reporter gene induction p21-RLuc, GADD153-hFLuc, p53-Bgal); conditions: for Anthem's Genotox assay: LEC in μg/ml (genotoxic lowest effective test concentration): at least one reporter induction above 1.5 fold threshold
# Protocol: The assay protocol standardized by us is described here. A stock of the test compound is prepared in 2% v/v solvents (including but not limited to DMSO or PBS) and this stock is used to make serial dilutions for the assay. […] The test compound is assayed for cell viability by standard cell viability/cytotoxicity assays (for example MTT assay as shown in the graphs).
# The MTT assay is performed using the MTT reagent (Sigma) dissolved in PBS (5 mg/ml). Briefly, the Genotox sensor cells are incubated with ten fold serial dilutions of the test compound in a 96-well microplate. After 24 h of incubation, 10 μl of the MTT solution is added to each well of the 96-well plate and incubated for 1 hour at 37° C. The medium is discarded (in a fume hood) and 100 μl DMSO is added to the wells. The plate is shaken for 10 min and absorbance is measured at 540 nm.
# For the genotoxicity assay, 16 h prior to compound treatment, the engineered Anthem's Genotox sensor cells are seeded in 96-well microplates (10,000 cells per well). […] The test compound is added in two-fold serial dilutions and the microplate is incubated at 37 C, 5% CO2 and 95% humidity for 24 or 48 h depending on the experiment requirements.
# The cells are lysed after 24 or 48 h with the 60 μl of lysis buffer per well (the lysis buffer composition has been optimized at Anthem Biosciences to be compatible with luciferase and beta galactosidase assays; 50 ml of Lysis buffer contains 7.5 ml of 1M HEPES at pH 8.0, 125 μl of Triton X 100, 50 mg of Porcine gelatin, 5 ml of glycerol and 25 μl of Antifoam). For each of the luciferase assays (Renilla and Firefly luciferase) 10 μl of the lysate is used, while 30 μl of the lysate is used for the beta galactosidase assay and total protein is estimated using the remaining 10 μl of the lysate by Bradford reagent.
# The Renilla luciferase assay is performed using luciferase assay buffer (0.5 M NaCl, 0.1 M Potassium phosphate buffer pH 7.2, 1 mM Di-Sodium EDTA, 1 mg/mL porcine gelatin, 50 mM Potassium iodide) containing 1 μg/well coelentrazine (1 mg/ml stock prepared in 100% methanol). The firefly luciferase assay is performed with the same luciferase assay buffer containing 100 μM D luciferin, 150 μM ATP and 80 μM Coenzyme A. The assay plate is gently shaken for 10 minutes on a microplate shaker (to fully mix the contents of each well). Then the plate is taken to the microplate reader and the luminescence data are collected from the microplates. […] The Luminiscence data are collected with an integration time of 10 seconds and a delay of 2 seconds.
# The beta galactosidase assay is carried out with Z assay buffer (50 ml buffer contains 0.4265 g of Na2HPO4, 0.275 g of NaH2PO4, 500 μl of 1M KCl, 50 μl of 1M MgSO4; for every 10 ml, 27 μl of Beta mercaptoethanol is added) and the substrate […] ONPG (1 ml of 10× ONPG stock-20 mg/ml). Once the yellow colour develops, 50 μl 1M Na2CO3 is added per well and the reading is taken at A420.
# The luminescence and absorbance data are transported into Microsoft excel spreadsheet and the fold change in the reporter gene expressions is calculated by normalizing with the data from vehicle treated control wells. The graph is plotted with test compound concentrations on X axis, cell viability percentage (from MTT assay) on primary Y axis and reporter gene fold induction on the secondary Y axis. […] The genotoxicity threshold is not calculated for test concentrations that result in less than 50% cell viability. […]
# [2] = tested on: HCT116-p21RLuc-GADD153hFLuc-p53Bgal cells; conditions: 24 h, MA: metabolic activation using S9 fraction mix
# Protocol: The luminescence and absorbance data are transported into Microsoft excel spreadsheet and the fold change in the reporter gene expressions is calculated by normalizing with the data from vehicle treated control wells. The graph is plotted with test compound concentrations on X axis, cell viability percentage (from MTT assay) on primary Y axis and reporter gene fold induction on the secondary Y axis. […] The genotoxic threshold is set at 1.5 fold change (i.e. 50% more than vehicle treated control). The genotoxic LEC is the lowest effective test concentration that produced at least one of the reporter gene inductions of more than 1.5 threshold. The genotoxicity threshold is not calculated for test concentrations that result in less than 50% cell viability. […]
# The genotoxic potential of metabolites of test compounds is assessed by incubating the compound in the Anthem's Genotox sensor cells for 3 hours with S9 of Aroclor 1254-treated rats (1% mix), procured from Moltox, Cat #11-101.5. […]
# 10^3 cells were seeded per well in 100 μl of McCoy's media with 10% FBS was incubated overnight (37° C., 5% CO2, 100% humidity) in a 96-well plates (as two sets). […] The plate was gently shaken for 10 minutes on a microplate shaker and then taken to the microplate reader to obtain the luminescence reading. […]
# [3] = assay time 24 h, no metabolic activation
Structure (SMILES),Anthem's Genotox assay: promoter(s) that was(were) induced [1],"Anthem's Genotox assay: LEC in μg/ml (genotoxic lowest effective test concentration) [1, 3] [µg/mL]",further results
Nc1ccn([C@@H]2O[C@H](CO)[C@@H](O)[C@@H]2O)c(=O)n1 [AraC arabinoside],p21,–,–
O=P1(N(CCCl)CCCl)NCCCO1 (stereo not shown) [Cyclophosphamide],–,–,Anthem's Genotox assay: LEC in μg/ml (genotoxic lowest effective test concentration) [2]: > 55.82 µg/mL; Anthem's Genotox assay: Result (assay time in h) [2]: + (positive for genotoxicity)
COc1cc([C@@H]2c3cc4c(cc3[C@@H](O[C@@H]3O[C@@H]5CO[C@@H](C)O[C@H]5[C@H](O)[C@H]3O)[C@H]3COC(=O)[C@H]23)OCO4)cc(OC)c1O [Etoposide],–,6.25,–
CC1COc2c(N3CCN(C)CC3)c(F)cc3c(=O)c(C(=O)O)cn1c23 (stereo not shown) [Ofloxacin],–,750.0,"Anthem's Genotox assay: Result (assay time in h) ([1]; assay time 24 h, no metabolic activation, positive when reporter gene induction over 1.5 fold): + (positive for genotoxicity)"
O=c1c(O)c(-c2ccc(O)c(O)c2)oc2cc(O)cc(O)c12 [Querceti3n],GADD153,–,–
